In publication PMC12511196 (European Journal of Clinical Pharmacology, 2025):

Key:
serotonin reuptake = details: cited from earlier work
CYP2D6 = details: cited from earlier work
[1] = cited from earlier work
[2] = cited from earlier work; remark: listed apart in the source
[3] = Treatment switch from fluoxetine to an alternative antidepressant (proxy for therapeutic failure) by CYP2D6 phenotype; format: in vivo, human; details: adult patients; for Switch to alternative antidepressant, Frequency (%): within one year after last fluoxetine measurement
Text: Consequently, an antidepressant switch was used as a proxy marker for therapeutic failure, regardless of the cause.
IBM SPSS Statistics version 28.0.1.1 (SPSS Inc, Chicago, IL) was used for statistical analysis and graphical presentations. Continuous variables were reported as median (range). The associations between CYP2D6 phenotype and pharmacokinetic measures such as absolute concentrations, C/D ratios and metabolic ratios were examined using Kruskal–Wallis test followed by Bonferroni-corrected Dunn’s test using CYP2D6 NMs as reference group. […] A p value below 0.05 was considered statistically significant.

NCC[C@H](Oc1ccc(C(F)(F)F)cc1)c1ccccc1 [S-norfluoxetine]
Potency as SSRI relative to R-norfluoxetine (serotonin reuptake): approximately 20 times

CNCCC(Oc1ccc(C(F)(F)F)cc1)c1ccccc1 (stereo not drawn) [fluoxetine]
Type of CYP2D6 inhibition (CYP2D6): competitive and reversible inhibitors
Distribution to the brain [1]: more distributed to the brain than norfluoxetine
Elimination half-life [2]: one to four
Switch to alternative antidepressant where genotyping was not performed within the switch period, Frequency (%) ([3]; CYP2D6 IMs (n = 347)): 6.3%
Switch to alternative antidepressant where genotyping was not performed within the switch period, Frequency (%) ([3]; CYP2D6 NMs (n = 587)): 6.6%
Switch to alternative antidepressant where genotyping was not performed within the switch period, Frequency (%) ([3]; CYP2D6 PMs (n = 68)): 10.3%
Switch to alternative antidepressant where genotyping was not performed within the switch period, Frequency (%) ([3]; CYP2D6 UMs (n = 25)): 12.0%
Switch to alternative antidepressant where genotyping was not performed within the switch period, Frequency (%) ([3]; Total (n = 1027)): 6.9%
Switch to alternative antidepressant, Frequency (%) ([3]; CYP2D6 IMs (n = 347)): 8.6%
Switch to alternative antidepressant, Frequency (%) ([3]; CYP2D6 NMs (n = 587)): 8.3%
Switch to alternative antidepressant, Frequency (%) ([3]; CYP2D6 PMs (n = 68)): 19.1%
Switch to alternative antidepressant, Frequency (%) ([3]; CYP2D6 UMs (n = 25)): 24.0%
Switch to alternative antidepressant, Frequency (%) ([3]; Total (n = 1027)): 9.5%

NCCC(Oc1ccc(C(F)(F)F)cc1)c1ccccc1 (stereo not drawn) [norfluoxetine]
Type of CYP2D6 inhibition (CYP2D6): competitive and reversible inhibitors
